Experimental data taken from patent US8211907B2, “Fused indane compound” (priority 2007, dated 2012).
Structures can show the parent of a compound that is named as a salt. Where two headings read alike, the source gives them in different places.

Assays:
[1] = target: NMDA receptor
[2] = tested on: male ddy mouse; experiment: MES (maximal electroshock seizure) inhibitory action; assay type: in vivo; details: for ED50: oral administration, electroshock 30 minutes later
Description: A test compound was orally administered to a male ddy mouse, an inhibitory action on the seizures caused by an electroshock applied at 30 minutes later (Interval 10 ms, Duration 0.9 ms, Amplitude 50 mA, Gate 0.2 s) was evaluated, and an NMDA receptor inhibitory action in vivo was measured (Palmer G C, Harris E W, Ray R, Stagnitto M L, Schmiesing R J. Arch Int Pharmacodyn Ther. 1992 May-June; 317: 16-34).

[3] = target: NMDA receptor; experiment: [3H] MK-801 binding test on rat brain membrane specimen
[4] = tested on: T1, NMDA receptor; experiment: Intracellular calcium concentration determination by FLIPR in rat first-generation neurocytes (NMDA/glycine stimulation); assay type: cell-based; details: rat first-generation neurocytes (DIV7-9), NMDA/glycine-induced calcium rise, 10 μM MK-801 = 100% inhibition
T1 construct: IC50
Description: 1) Preparation of Rat First-Generation Neurocytes
Anesthetized with ether, Wistar rats (Nippon SLC) at the 19th day of pregnancy were let die from blood loss by breast incision. The abdomen was cut open, and the womb was extracted, and the fetus was removed. The whole brain was removed, the hemicerebrum was then isolated in Neurobasal medium (Glu, Asp-free; Gibco), and the meninx was removed. The hemicerebrum was recovered by centrifugation, and suspended in a cell-dispersing solution (0.36 mg/ml papain, 150 U/ml DNase 1, 0.02% L-cysteine monohydrochloride monohydrate, 0.02% bovine serum albumin, 0.5% glucose, Ca^2+, Mg^2+-free PBS), and treated at 37° C. for 15 minutes. This was centrifuged at 400 g for 5 minutes, and the supernatant was removed by suction. This was suspended in a neurocyte culture medium (Sumitomo Bakelite), and the cell masses were removed using a filter. The number of the living cells was counted, and 100,000 cells/well were incubated on a 96-well plate (Biocoat PDL96W black/clear (Nippon Becton Dickinson)) (37° C., 5% CO2).
2) Intracellular Calcium Concentration Determination by FLIPR (Fluorometric Imaging Plate Reader)
The culture medium of rat first-generation neurocytes (DIV7-9) was removed by suction, and the cells were washed once with a 100 μl assay buffer (Hank's Balanced Salt Solution (Ca^2+, Mg^2+-free), 20 mM Hepes-NaOH (pH 7.4), 1 mM CaCl2). 100 μl of the assay buffer containing Fluo3 (Dojin Chemical) was added thereto, and incubated for 1 hour (37° C., 5% CO2). The cells were washed three times with 100 μl of the assay buffer, and then a compound solution dissolved in 1 μl of dimethylsulfoxide, and 100 μl of the assay buffer containing 2.5 μM (final concentration) tetrodotoxin were added thereto and incubated for 30 minutes (37° C., 5% CO2). The fluorescent intensity was measured at intervals of two seconds, and ten seconds after the measurement start, 50 μl of a ligand solution (Hank's Balanced Salt Solution (Ca^2+, Mg^2+-free), 20 mM Hepes-NaOH (pH 7.4), 1 mM CaCl2, 9 μM NMDA, 30 μM glycine) containing the compound solution dissolved in 0.5 μl of dimethylsulfoxide was added thereto, and the fluorescent intensity was measured for 120 seconds from the start of the measurement. The data measured for total of 120 seconds (60 times in total) were averaged.

[5] = Mus musculus, po, 0.5 h, read-out: ED50

| Structure (SMILES) | Ki [1] [µM] | ED50 [2, 5] [mg/kg] | Ki [3] [µM] | other results |
| --- | --- | --- | --- | --- |
| c1ccc2c(c1)C[C@H]1CCCN[C@@H]21 (racemic) [Compound A, (4aRS,9bRS)-2,3,4,4a,5,9b-hexahydro-1H-indeno[1,2-b]pyridine, reference compound] | 38 | > 80 |  | anti-seizure action ([2]; at 80 mg/kg, oral): did not exhibit an anti-seizure action |
| c1ccc([C@@H]2c3ccccc3[C@@H]3NCCC[C@H]23)cc1 (racemic) [Compound B, (4aRS,5RS,9bRS)-5-phenyl-2,3,4,4a,5,9b-hexahydro-1H-indeno[1,2-b]pyridine, reference compound] | 23 |  |  |  |
| c1ccc([C@@H]2c3ccccc3[C@@H]3NCCC[C@H]23)cc1 (racemic) [Compound C, reference compound] | 20 |  |  |  |
| CC[C@]12CCCN[C@H]1c1ccccc1C2 (racemic) [Example 1, (4aRS,9bRS)-4a-ethyl-2,3,4,4a,5,9b-hexahydro-1H-indeno[1,2-b]pyridine hydrochloride] |  | 6.8 | 0.9 | IC50 ([4]; read-out: IC50): 5.1 µM |
| C[C@@]12CCCN[C@@H]1c1ccccc1S2 (racemic) [Example 13, (4aRS,9bRS)-4a-methyl-1,2,3,4,4a,9b-hexahydro[1]benzothieno[3,2-b]pyridine hydrochloride] |  | 14 | 2 |  |
| C[C@]12CCCN[C@H]1c1ccccc1C2 (racemic) [Example 22, (4aRS,9bRS)-4a-methyl-2,3,4,4a,5,9b-hexahydro-1H-indeno[1,2-b]pyridine hydrochloride] |  | 11 | 5.1 | IC50 ([4]; read-out: IC50): 34 µM |
| C[C@]12CCCCN[C@H]1c1ccccc1C2 (racemic) [Example 38-1, (5aRS,10bRS)-5a-methyl-1,2,3,4,5,5a,6,10b-octahydroindeno[1,2-b]azepine hydrochloride] |  |  | 0.5 |  |
| C[C@]12CCCCN[C@@H]1c1ccccc1C2 (racemic) [Example 38-2, (5aRS,10bSR)-5a-methyl-1,2,3,4,5,5a,6,10b-octahydroindeno[1,2-b]azepine hydrochloride] |  |  | 6.3 |  |
| CN1CCC[C@]2(C)Cc3ccccc3[C@H]12 (racemic) [Example 42, (4aRS,9bRS)-1,4a-dimethyl-2,3,4,4a,5,9b-hexahydro-1H-indeno[1,2-b]pyridine methanesulfonate] | 1.3 | 31 |  |  |
| C[C@]12CCCN[C@@]1(C)c1ccccc1C2 (racemic) [Example 63, (4aRS,9bRS)-4a,9b-dimethyl-2,3,4,4a,5,9b-hexahydro-1H-indeno[1,2-b]pyridine hydrochloride] |  | 5.8 | 0.8 | IC50 ([4]; read-out: IC50): 3 µM |
| CC[C@]12CCCN[C@H]1c1cc(COC)ccc1C2 (racemic) [Example 73, (4aRS,9bRS)-4a-ethyl-8-(methoxymethyl)-2,3,4,4a,5,9b-hexahydro-1H-indeno[1,2-b]pyridine hydrochloride] |  |  | 7.1 |  |
| CC[C@]12CCCN[C@H]1c1ccccc1C2 (single isomer, unassigned) [Example 83-1, (4aR*,9bR*)-4a-ethyl-2,3,4,4a,5,9b-hexahydro-1H-indeno[1,2-b]pyridine hydrochloride] |  | 6.2 |  | Ki ([3]; hydrochloride): 0.6 µM; IC50 ([4]; hydrochloride, read-out: IC50): 3.1 µM |
| CC[C@]12CCCN[C@H]1c1ccccc1C2 (single isomer, unassigned) [Example 83-2, (4aR*,9bR*)-4a-ethyl-2,3,4,4a,5,9b-hexahydro-1H-indeno[1,2-b]pyridine hydrochloride] |  |  |  | Ki ([3]; hydrochloride): 2.7 µM; IC50 ([4]; hydrochloride, read-out: IC50): 12 µM |
| C[C@]12CCCN[C@@]1(C)c1ccccc1C2 (single isomer, unassigned) [Example 84-1, (4aR*,9bR*)-4a,9b-dimethyl-2,3,4,4a,5,9b-hexahydro-1H-indeno[1,2-b]pyridine hydrochloride] |  |  |  | ED50 ([2]; hydrochloride): 4.2 mg/kg, po; Ki ([3]; hydrochloride): 0.5 µM; IC50 ([4]; hydrochloride, read-out: IC50): 1.8 µM |
| C[C@]12CCCN[C@@]1(C)c1ccccc1C2 (single isomer, unassigned) [Example 84-2, (4aR*,9bR*)-4a,9b-dimethyl-2,3,4,4a,5,9b-hexahydro-1H-indeno[1,2-b]pyridine hydrochloride] |  |  |  | ED50 ([2]; hydrochloride): 28 mg/kg, po; Ki ([3]; hydrochloride): 1.1 µM; IC50 ([4]; hydrochloride, read-out: IC50): 6.1 µM |
| c1ccc([C@]23CCCN[C@H]2c2ccccc2C3)cc1 [Example 3] |  | 39 | 1.2 | IC50 [4]: 6.8 µM |
| Cc1cc2c(s1)C[C@]1(C)CCCN[C@H]21 [Example 15] | 8.5 | 38 |  |  |
| C[C@@]12CCCN[C@@H]1c1ccccc1CC2 [Example 17] | 2 | 4.2 |  |  |
| CC(C)[C@]12CCCN[C@@H]1c1ccccc1C2 [Example 32] | 6.8 | 26 |  |  |
| COc1ccc2c(c1)[C@H]1N(C)CCC[C@@]1(C)C2 [Example 56] |  |  | 1.5 |  |
| COC[C@]12CCCN[C@@]1(C)c1ccccc1C2 [Example 68] | 0.6 | 26 |  |  |
| CCOC[C@]12CCCN[C@@]1(C)c1ccccc1C2 [Example 69] |  |  | 1.3 |  |
| CC[C@]12CCCN[C@H]1c1cc(CO)ccc1C2 [Example 77] |  |  | 4 |  |
| C[C@]12CCCN[C@H]1c1ccccc1C2 [Example 81, (4aR,9bR)-4a-methyl-2,3,4,4a,5,9b-hexahydro-1H-indeno[1,2-b]pyridine hydrochloride] |  | 9.1 | 2 | IC50 ([4]; read-out: IC50): 21 µM |
| C[C@@]12CCCN[C@@H]1c1ccccc1C2 [Example 82, (4aS,9bS)-4-a-methyl-2,3,4,4a,5,9b-hexahydro-1H-indeno[1,2-b]pyridine hydrochloride] | 6.7 | 19 |  | IC50 ([4]; read-out: IC50): 94 µM |
